This assay relates to rice seeds. Description: rice seed germination in artificial paddy. The format is in vivo, Oryza sativa (Rice). The conditions noted are these: seeds incubated in 1 micromolar NR; water deprivation paddy, 37 seeds; only 1 seed germinated in that paddy's control. As to the method:
Conditions of “water deprivation” in this specification refers to the administration of less water than required for a seed to germinate typically. In the experiments described below, seeds subjected to a condition of “water deprivation” were given 2 mL of water 3 times a week, as opposed to 5 mL. In the rice experiment, the seeds subjected to “water deprivation” were not given any water after their planting in the artificial paddy. 5 mL of the solutions of the 3 compounds or combinations was placed in a small size weigh boats, along with water as the control. Up to 50 seeds were placed in the weigh boats. Incubation periods ranged from 18-24 hours at room temperature (recorded range of 55-65° F.). The seeds were then either placed in a germination chamber or planted in potting soil, as described below. For the rice plants, an artificial paddy field was built using two plastic bins filled with soil, and filled with water to a depth of 4 inches. A divider comprising of sticks was placed to delineate the experimental conditions comparing water soaked seeds or NR soaked seeds. In one paddy, water was replenished until germination was observed; the other received no added water. The bins were left outside for a total of 6 weeks; the daily temperatures ranged between 50 F to 95 F, and no rainfall was recorded during the experimental period. […]

This passage reports seeds germinated results from patent US20200107549A1, “Enhancement of seed germination and plant growth under conditions of stress with pterostilbene, ellagic acid, nicotinamide riboside, and their combinations” (priority 2018, published 2020).

For the compound `NC(=O)c1ccc[n+]([C@@H]2O[C@H](CO)[C@@H](O)[C@H]2O)c1` [NR, Nicotinamide riboside], the seeds germinated was determined as 32%.
